# According to patent US11166924B2, “N-methyl-d-aspartate receptor allosteric modulators and methods for their use” (Qingdao Primedicine Pharmaceutical Company, Ltd., priority 2016, dated 2021):
# Target: T1, GluN1/GluN2A NMDARs (Rattus norvegicus, UniProt P35439+Q00959)
# T1 construct: expressed in transfected cells; host or cells: HEK293
# Experiment: Whole-cell patch clamp recordings in HEK293 cells transfected with GluN1/GluN2A
# Type: cell-based
# Details: Table 1; positive modulation of GluN1/GluN2A NMDARs; concentration not given
# Protocol: Cells were transfected with a combination of pcDNA3-CMV expression vectors, each of which expressed one of the rat recombinant (GluN2AWT, GluN1WT, GluN2BWT) subunits. The sequences of all plasmids were confirmed by automated DNA sequencing. Human Embryonic Kidney 293 (HEK293 cells) were cultured in Dulbecco's Modified Eagle's Medium (DMEM) (Invitrogen) supplemented with 10% fetal bovine serum (FBS). When HEK293 cells achieved 90% confluence, plasmids of either GluN1 & GluN2A or GluN1 & GluN2B were co-transfected into the cells using Lipofectamine 2000 (Invitrogen, 11668019) according to manufacturer's instructions. HEK293 cells were then maintained in the 37° C. incubator with […] and 5% CO2 for 48 hrs before being used in experiments. The transfection ratios for the NMDAR subunit combinations were all 1:1 (GluN1/GluN2A or GluN1/GluN2B).
# Whole cell patch-clamp recordings were performed under voltage-clamp mode using an Axopatch 200B or 1D patch-clamp amplifier (Molecular Devices). Whole-cell currents were recorded at a holding potential of −60 mV unless indicated elsewhere, and signals were filtered at 2 kHz, digitized at 10 kHz (Digidata 1322A). Recording pipettes (3-5 MΩ) were filled with intracellular solution containing (mM): CsCl 140, HEPES 10, Mg-ATP 4, QX-314 5, pH 7.20; osmolarity, 290-295 mOsm. BAPTA (10 mM) was added in the intracellular solution (unless otherwise specified). The coverslips were continuously superfused with extracellular solution containing (mM): NaCl 140, KCl 5.4, HEPES 10, CaCl2 1.3, glucose 20, pH 7.4; osmolarity, 305-315 mOsm. NMDA-induced currents were applied by NMDA through perfusion fast-step (Warner Instruments). With perfusion fast-step system, NMDA application was achieved by using a two-square barrel glass tubing and depending on the age of the cultured neurons, CNQX (10 μM), TTX (0.5 μM) or BIC (10 μM) were added in the extracellular solution to minimize the activation of ionotropic glutamate receptors and voltage-gated sodium channels, respectively. All experiments were performed at room temperature. Recordings from at least six HEK293 cells/neurons were performed for all active compounds. Data were pooled among HEK293 cells or primary neurons and composite dose-response data were fitted by the equation Percentage Response=100×Relative Efficacy/[1+(EC50/Concentration)nH], where EC50 is the concentration of agonist that produces a half-maximal response, relative efficacy is the response at maximally effective concentration relative to the maximal response of glutamate, and nH is the Hill slope.
# GluN1/GluN2A NMDAR subtypes are an attractive target for positive allosteric modulation. The present inventors employed in silico computational drug discovery methods to conduct a virtual screen of purchasable lead-like compounds from the ZINC database (Irwin, J., et al. Abstr Pap Am Chem Soc (2005) 230:U1009) and some synthetic compounds to identify potential GluN1/GluN2A-NMDAR modulators. The in silico methods included large-scale docking against the interstice interface of the GluN1/GluN2A heterodimer and consensus scoring to select compounds for empirical testing. Candidate compounds were further screened by using GluN1/GluN2A transiently transfected in human embryonic kidney (HEK293) cells and tested by whole-cell patch clamp recordings.
# The inventors used transiently transfected HEK293 cells expressing either GluN1/GluN2A or GluN1/GluN2B NMDARs and tested by whole-cell voltage patch clamp recordings to see whether selected compounds were controlling the subtype selectivity profile of the drugs.
# Whole-cell patch clamp recordings were performed to measure glutamate evoked currents with chloride-based pipette solutions at a holding potential of −60 mV.
# T1 sequence (Q00959 23-1464, other chains not shown): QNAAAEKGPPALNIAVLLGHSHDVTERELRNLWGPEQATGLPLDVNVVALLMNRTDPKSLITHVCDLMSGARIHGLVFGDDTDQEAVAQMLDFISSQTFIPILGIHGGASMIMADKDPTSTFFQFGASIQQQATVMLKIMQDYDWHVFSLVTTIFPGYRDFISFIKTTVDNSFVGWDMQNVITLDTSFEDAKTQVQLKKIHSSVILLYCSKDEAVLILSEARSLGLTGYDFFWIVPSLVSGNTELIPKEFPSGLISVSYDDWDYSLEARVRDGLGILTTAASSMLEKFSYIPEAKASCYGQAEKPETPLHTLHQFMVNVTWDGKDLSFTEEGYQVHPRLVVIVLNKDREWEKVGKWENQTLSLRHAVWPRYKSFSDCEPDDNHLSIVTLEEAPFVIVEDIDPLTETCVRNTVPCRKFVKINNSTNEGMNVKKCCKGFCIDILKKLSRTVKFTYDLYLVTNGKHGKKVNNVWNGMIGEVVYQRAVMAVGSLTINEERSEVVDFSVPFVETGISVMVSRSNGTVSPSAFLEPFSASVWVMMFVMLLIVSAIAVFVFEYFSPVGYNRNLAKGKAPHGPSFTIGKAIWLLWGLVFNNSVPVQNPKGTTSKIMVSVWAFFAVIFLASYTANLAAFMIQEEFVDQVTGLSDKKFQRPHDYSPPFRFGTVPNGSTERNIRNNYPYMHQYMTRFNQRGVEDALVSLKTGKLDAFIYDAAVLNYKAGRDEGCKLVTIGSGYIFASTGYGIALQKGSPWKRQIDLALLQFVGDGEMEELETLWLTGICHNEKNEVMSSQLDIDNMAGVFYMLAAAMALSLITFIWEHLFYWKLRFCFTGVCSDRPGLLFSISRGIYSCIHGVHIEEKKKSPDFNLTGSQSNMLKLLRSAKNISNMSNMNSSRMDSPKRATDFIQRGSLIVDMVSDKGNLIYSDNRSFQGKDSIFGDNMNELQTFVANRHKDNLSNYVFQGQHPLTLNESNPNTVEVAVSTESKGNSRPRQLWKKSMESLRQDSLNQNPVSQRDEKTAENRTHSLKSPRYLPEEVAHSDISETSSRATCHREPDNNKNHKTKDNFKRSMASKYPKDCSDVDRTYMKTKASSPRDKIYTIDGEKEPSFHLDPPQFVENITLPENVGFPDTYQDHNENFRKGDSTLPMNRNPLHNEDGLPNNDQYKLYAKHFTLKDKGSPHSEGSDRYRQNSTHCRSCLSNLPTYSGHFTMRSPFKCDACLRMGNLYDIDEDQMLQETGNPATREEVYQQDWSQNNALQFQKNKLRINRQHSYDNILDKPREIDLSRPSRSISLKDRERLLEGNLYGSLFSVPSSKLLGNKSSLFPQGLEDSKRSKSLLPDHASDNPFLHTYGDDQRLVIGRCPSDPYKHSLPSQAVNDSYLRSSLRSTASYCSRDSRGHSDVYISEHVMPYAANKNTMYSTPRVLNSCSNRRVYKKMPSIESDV
row,SMILES,Normalized Potentiation [%]
1,"C=CCc1cc(/C=N/NC(=O)c2ccccc2Br)c(O)c(OC)c1 [Npam03, (E)-N′-(5-allyl-2-hydroxy-3-methoxybenzylidene)-2-bromobenzohydrazide]",97.62 ± 6.03
2,"CCOc1cc(Br)c(Br)c(/C=N/NC(=O)c2ccccc2C)c1O [Npam04C, (E)-N′-(2,3-dibromo-5-ethoxy-6-hydroxybenzylidene)-2-methylbenzohydrazide]",292.08 ± 44.70
3,"COc1cc(Br)c(Br)c(/C=N/NC(=O)c2ccccc2Br)c1O [Npam05, (E)-2-bromo-N′-(2,3-dibromo-6-hydroxy-5-methoxybenzylidene)benzohydrazide]",196.54 ± 21.20
4,"CCOc1cc(Cl)c(Cl)c(/C=N/NC(=O)c2cncc(Br)c2)c1O [Npam06, (E)-5-bromo-N′-(2,3-dichloro-5-ethoxy-6-hydroxybenzylidene)nicotinohydrazide]",201.19 ± 14.63
5,"CCOc1cccc(/C=N/NC(=O)c2cccc(Cl)c2C)c1O [Npam07, (E)-3-chloro-N′-(3-ethoxy-2-hydroxybenzylidene)-2-methylbenzohydrazide]",103.77 ± 11.00
6,"CCOc1cc(Cl)c(Cl)c(/C=N/NC(=O)NC(=O)COc2c(C)ccc(C)c2C)c1O [Npam08, (E)-2-(2,3-dichloro-5-ethoxy-6-hydroxybenzylidene)-N-(2-(2,3,6-trimethylphenoxy)acetyl)hydrazinecarboxamide]",362.76 ± 38.44
7,"CCOc1cc(Br)c(Br)c(/C=N/NC(=O)c2cccc(Cl)c2C)c1O [Npam10, 3-chloro-N′-[(1E)-(2,3-dibromo-5-ethoxy-6-hydroxyphenyl)methylidene]-2-methylbenzohydrazide]",206.28 ± 33.62
8,"CCOc1cc(Br)c(Br)c(/C=N/NC(=O)c2ccccc2OC)c1O [Npam12, (E)-N′-(2,3-dibromo-5-ethoxy-6-hydroxybenzylidene)-2-methoxybenzohydrazide]",118.15 ± 35.54
9,"COc1cc(Br)c(Br)c(/C=N/NC(=O)c2ccc(Cl)cc2)c1O [Npam13, (E)-4-chloro-N′-(2,3-dibromo-6-hydroxy-5-methoxybenzylidene)benzohydrazide]",195.38 ± 40.11
10,"CCOc1cc(Br)cc(/C=N/NC(=O)c2cccc(C)c2C)c1O [Npam15, (E)-N′-(5-bromo-3-ethoxy-2-hydroxybenzylidene)-2,3-dimethylbenzohydrazide]",89.84 ± 27.86
11,"O=C(N/N=C/c1cccc(O)c1O)c1cccc(Br)c1 [Npam16, (E)-3-bromo-N′-(2,3-dihydroxybenzylidene)benzohydrazide]",36.90 ± 5.62
12,"CCOc1cc(Cl)c(Cl)c(/C=N/NC(=O)c2ccccc2C)c1O [Npam17, (E)-N′-(2,3-dichloro-5-ethoxy-6-hydroxybenzylidene)-2-methylbenzohydrazide]",130.54 ± 13.63
13,"CCOc1cc(Cl)cc(/C=N/NC(=O)c2ccccc2Br)c1O [Npam18, (E)-2-bromo-N′-(5-chloro-3-ethoxy-2-hydroxybenzylidene)benzohydrazide]",213.58 ± 43.58
14,"COc1cc(Cl)cc(/C=N/NC(=O)c2ccccc2Br)c1O [Npam20, (E)-2-bromo-N′-(5-chloro-2-hydroxy-3-methoxybenzylidene)benzohydrazide]",131.85 ± 23.20
15,"CCOc1cc(Br)cc(/C=N/NC(=O)c2ccccc2N)c1O [Npam21, (E)-2-amino-N′-(5-bromo-3-ethoxy-2-hydroxybenzylidene)benzohydrazide]",37.27 ± 4.64
16,"CCOc1cc(Br)cc(/C=N/NC(=O)c2ccc(F)cc2)c1O [Npam22, (E)-N′-(5-bromo-3-ethoxy-2-hydroxybenzylidene)-4-fluorobenzohydrazide]",59.83 ± 7.55

row,SMILES,Normalized Potentiation [%]
1,"CCOc1cc(Br)cc(/C=N/NC(=O)c2ccc3c(c2)OCCO3)c1O [Npam23, (E)-N′-(5-bromo-3-ethoxy-2-hydroxybenzylidene)-2,3-dihydrobenzo[b][1,4]dioxine-6-carbohydrazide]",87.00 ± 6.48
2,"CCOc1cc([N+](=O)[O-])cc(/C=N/NC(=O)c2cc(Cl)ccc2O)c1O [Npam24, (E)-5-chloro-N′-(3-ethoxy-2-hydroxy-5-nitrobenzylidene)-2-hydroxybenzohydrazide]",61.57 ± 8.15
3,"COc1cc(Br)cc(/C=N/NC(=O)c2ccc(NC(=O)c3ccc(C)cc3)cc2)c1O [Npam25, (E)-N-(4-(2-(5-bromo-2-hydroxy-3-methoxybenzylidene)hydrazinecarbonyl)phenyl)-4-methylbenzamide]",−14.32 ± 2.20
4,"O=C(N/N=C/c1cc(Cl)cc(Cl)c1O)c1ccccc1Br [Npam26, (E)-2-bromo-N′-(3,5-dichloro-2-hydroxybenzylidene)benzohydrazide]",175.08 ± 14.42
5,"CCOc1cc(/C=N/NC(=O)c2ccccc2Br)cc(Br)c1O [Npam27, (E)-2-bromo-N′-(3-bromo-5-ethoxy-4-hydroxybenzylidene)benzohydrazide]",−0.278 ± 5.62
6,"CCOc1cc(Br)cc(/C=N/NC(=O)c2ccncc2)c1O [Npam28, N′-[(1E)-(5-bromo-3-ethoxy-2-hydroxyphenyl)methylidene]pyridine-4-carbohydrazide]",30.25 ± 2.87
7,"COc1cc(Cl)cc(/C=N/NC(=O)c2ccccc2Br)c1O [Npam29, (E)-2-bromo-N′-(5-chloro-2-hydroxy-3-methoxybenzylidene)benzohydrazide]",120.68 ± 9.61
8,"CCOc1cccc(/C=N/NC(=O)c2ccccc2Br)c1O [Npam31, 2-bromo-N′-[(1E)-(3-ethoxy-2-hydroxyphenyl)methylidene]benzohydrazide]",15.11 ± 8.78
9,"CCOc1cc(Cl)c(Cl)c(/C=N/NC(=O)c2cccc(Br)c2)c1O [Npam32, (E)-3-bromo-N′-(2,3-dichloro-5-ethoxy-6-hydroxybenzylidene)benzohydrazide]",374.58 ± 19.07
10,"Cc1ccccc1C(=O)N/N=C/c1cccc(O)c1O [Npam34, (E)-N′-(2,3-dihydroxybenzylidene)-2-methylbenzohydrazide]",−12.47 ± 2.06
11,"COc1cc(Br)c(Br)c(/C=N/NC(=O)c2ccc(C(C)(C)C)cc2)c1O [Npam35, (E)-4-(tert-butyl)-N′-(2,3-dibromo-6-hydroxy-5-methoxybenzylidene)benzohydrazide]",512.24 ± 28.67
12,"O=C(N/N=C/c1cccc(O)c1O)c1ccc(Cl)cc1Cl [Npam36, (E)-2,4-dichloro-N′-(2,3-dihydroxybenzylidene)benzohydrazide]",4.02 ± 4.79
13,"COc1cc(Br)c(Br)c(/C=N/NC(=O)c2cccc(F)c2)c1O [Npam37, (E)-N′-(2,3-dibromo-6-hydroxy-5-methoxybenzylidene)-3-fluorobenzohydrazide]",435.94 ± 156.01
14,"CCOc1cc(Br)cc(/C=N/NC(=O)c2cccc(Br)c2)c1O [Npam38, (E)-3-bromo-N′-(5-bromo-3-ethoxy-2-hydroxybenzylidene)benzohydrazide]",426.44 ± 87.65
15,"COc1cc(Br)c(Br)c(/C=N/NC(=O)c2cccnc2)c1O [Npam39, (E)-N′-(2,3-dibromo-6-hydroxy-5-methoxybenzylidene)nicotinohydrazide]",51.95 ± 11.29

# Same assay, conditions: Table 1; potentiation; read-out: EC50
row,SMILES,EC50 [nM]
1,"CCOc1cc(Cl)c(Cl)c(/C=N/NC(=O)c2cccc(Br)c2)c1O [Npam32, (E)-3-bromo-N′-(2,3-dichloro-5-ethoxy-6-hydroxybenzylidene)benzohydrazide]",250
2,"COc1cc(Br)c(Br)c(/C=N/NC(=O)c2ccc(C(C)(C)C)cc2)c1O [Npam35, (E)-4-(tert-butyl)-N′-(2,3-dibromo-6-hydroxy-5-methoxybenzylidene)benzohydrazide]",220
3,"CCOc1cc(Br)cc(/C=N/NC(=O)c2cccc(Br)c2)c1O [Npam38, (E)-3-bromo-N′-(5-bromo-3-ethoxy-2-hydroxybenzylidene)benzohydrazide]",190
